{"source": "patent US10894772B2", "about": "“Flavor modulator having pyridine derivative or salt thereof as active ingredient” (T. HASEGAWA CO., LTD., priority 2015, dated 2021)", "assay_type_in_all_cases": "in vivo", "key": {"panelists [1]": {"system": "panelists", "test": "Confirmation of umami imparting and saltiness enhancing effect in 0.3 mass % sodium chloride (evaluation in words)", "protocol": "An aqueous 0.3 mass % sodium chloride solution (control), and solutions of 2-(3-benzyloxypropyl)pyridine dissolved in a 0.3 mass % sodium chloride solution to have the concentration shown in Table 17 were prepared. As comparative products, an aqueous 0.3 mass % sodium chloride solution (control), and a solution of a comparative product, 2-(2-benzyloxyethyl)pyridine dissolved in a 0.3 mass % sodium chloride solution to have the same concentration were prepared. Well-trained 5 panelists tasted the solutions for organoleptic evaluation of umami impartment and saltiness enhancement.\nAn aqueous 0.3 mass % sodium chloride solution (control), and solutions of the invention product 201 or the reference product 202 dissolved in a 0.3 mass % sodium chloride solution to have the concentration as 2-(3-benzyloxypropyl)pyridine therein shown in the following Table 23 were prepared. Well-trained 5 panelists tasted the solutions for organoleptic evaluation of umami impartment and saltiness enhancement."}, "panelists [2]": {"system": "panelists", "test": "Addition to soup broth for udon noodle", "conditions": "0.05 ppm added to commercial soup broth for udon noodle; 100 ml diluted with 200 ml hot water; 5 panelists", "protocol": "(§1) 0.05 ppm of any of the invention products 1 to 6 was added to commercially-available soup broth for udon noodle (tripe strength). 200 ml of hot water was added to 100 ml of each of the added soup broth and the non-added soup broth, and well-trained 5 panelists tasted them for organoleptic evaluation in point of umami.\nas §1, with “2-(3-benzyloxypropyl)pyridine (invention product 101)” for “any of the invention products 1 to 6”\nas §1, with “as 2-(3-benzyloxypropyl)pyridine therein” for “of any”, “product 201” for “products 1 to 6”"}, "panelists [3]": {"system": "panelists", "test": "Confirmation of umami in water (organoleptic evaluation of taste and flavor in words)", "conditions": "for Organoleptic Evaluation Taste / Organoleptic Evaluation Flavor: average of 5 panelists", "protocol": "A solution was prepared by dissolving 2-(3-benzyloxypropyl)pyridine (invention product 101) in water to have a concentration shown in Table 15. As a comparative product, a solution was prepared by dissolving 2-(2-benzyloxyethyl)pyridine (comparative product 1 prepared in Comparative Example 1) to have the same concentration. Well-trained 5 panelists tasted the solutions and non-added water for organoleptic evaluation of taste and flavor.\nThe invention product 101 and the comparative product 1 were individually diluted with ethanol to have a proper concentration, and then further diluted with water to prepare an aqueous solution of 2-(3-benzyloxypropyl)pyridine (invention product 101 produced in Example 101) and that of 2-(2-benzyloxyethyl)pyridine (comparative product synthesized in Comparative Example 1) each having a concentration shown in the following Table 21. Well-trained panelists tasted the solution having a different concentration and non-added water for organoleptic evaluation in point of taste and flavor. […]"}, "panelists [4]": {"system": "panelists", "test": "Confirmation of umami and saltiness enhancement in edible salt and MSG solution", "conditions": "10 ppb added to aqueous 0.3 mass % edible salt and 0.03 mass % sodium glutamate (MSG); 5 panelists", "description": "Well-trained 5 panelists tasted an aqueous solution of 0.3 mass % edible salt and 0.03 mass % sodium glutamate (MSG), and aqueous solutions prepared by adding to the aqueous solution, 10 ppb of any of the invention products 1 to 6, for organoleptic evaluation in point of umami and saltiness enhancement.\n(§2) Well-trained 5 panelists tasted an aqueous solution of 0.3 mass % edible salt and 0.03 mass % sodium glutamate (MSG), and an aqueous solution prepared by adding to the aqueous solution, 10 ppb of 2-(3-benzyloxypropyl)pyridine (invention product 101), for organoleptic evaluation in point of umami and saltiness enhancement.\nas §2, with “ppb, as 2-(3-benzyloxypropyl)pyridine therein,” for “ppb”, “the invention” for “2-(3-benzyloxypropyl)pyridine (invention”, “201 or the reference product 202,” for “101),”"}, "panelists [5]": {"system": "panelists", "test": "Confirmation of sweetness enhancing effect in sucrose solution", "conditions": "5 ppb added to aqueous 3 mass % sucrose solution; 5 panelists", "description": "Well-trained 5 panelists tasted an aqueous 3 mass % sucrose solution, and aqueous solutions prepared by adding to the aqueous 3 mass % sucrose solution, 5 ppb of any of the invention products 1 to 6, for organoleptic evaluation in point of sweetness.\nWell-trained 5 panelists tasted an aqueous 3 mass % sucrose solution, and an aqueous solution prepared by adding thereto 5 ppb of 2-(3-benzyloxypropyl)pyridine (invention product 101), for organoleptic evaluation in point of sweetness.\nWell-trained 5 panelists tasted (1) an aqueous 3 mass % sucrose solution and (2) an aqueous solution prepared by adding […], as 2-(3-benzyloxypropyl)pyridine therein, of the invention product 201 to the aqueous 3 mass % sucrose solution, for organoleptic evaluation in point of sweetness."}, "panelists [6]": {"system": "panelists", "test": "Flavor evaluation of ethanol solution (bottle mouth and flavor paper)", "conditions": "0.1% ethanol solution, average evaluation of 5 panelists", "protocol": "(§3) A 1% ethanol solution of the invention products 1 to 6 prepared in Examples 1 to 6 was prepared as an evaluation solution. The evaluation solution was prepared in a sample bottle. Regarding the flavor of the sample smelling from the bottle mouth and the flavor of a flavor paper prepared by infiltrating the evaluation solution into a paper, well-trained 5 panelists tested the solution for flavor evaluation.\nas §3, with “0.1%” for “1%”, “product 101 (2-(3-benzyloxypropyl)pyridine)” for “products 1 to 6”, “Example 101” for “Examples 1 to 6”, “evaluation. A typical evaluation of the product is as follows.” for “evaluation.”"}, "panelists [7]": {"system": "panelists", "test": "Confirmation of umami enhancing effect: comparison with edible salt and 0.05 mass % MSG solution", "conditions": "10 ppb with 0.3 mass % edible salt in water; 5 panelists; Example 110", "description": "Well-trained 5 panelists tasted an aqueous solution of 0.3 mass % edible salt and 0.05 mass % sodium glutamate (MSG), and an aqueous solution of 0.3 mass edible salt and 10 ppb of 2-(3-benzyloxypropyl)pyridine (invention product 101), for organoleptic evaluation of umami.\nWell-trained 5 panelists tasted (1) an aqueous solution of 0.3 mass % edible salt and 0.05 mass % sodium glutamate (MSG), and (2) and an aqueous solution of 0.3 mass % edible salt and […], as 2-(3-benzyloxypropyl)pyridine therein, of the invention product 201, for organoleptic evaluation in point of umami."}, "panelists [8]": {"system": "panelists", "test": "Confirmation of umami enhancing effect in sodium inosinate solution", "conditions": "10 ppb added to aqueous 0.1 mass % sodium inosinate solution; 5 panelists", "description": "Well-trained 5 panelists tasted an aqueous solution of 0.1 mass % sodium inosinate (5′-IMP⋅2Na), and aqueous solutions prepared by adding to the aqueous 0.1 mass % sodium inosinate solution, 10 ppb of any of the invention products 1 to 6, for organoleptic evaluation in point of umami.\nWell-trained 5 panelists tasted an aqueous solution of 0.1 mass % sodium inosinate (5′-IMP⋅2Na), and an aqueous solution prepared by adding thereto 10 ppb of 2-(3-benzyloxypropyl)pyridine (invention product 101), for organoleptic evaluation in point of umami.\nWell-trained 5 panelists tasted (1) 0.1 mass % sodium inosinate (5′-IMP⋅2Na) and (2) an aqueous solution of 0.1 mass % sodium inosinate and 5 ppb, as 2-(3-benzyloxypropyl)pyridine therein, of the invention product 201, for organoleptic evaluation in point of umami."}, "[9]": {"conditions": "in 0.3 mass % sodium chloride solution, Example 108"}, "[10]": {"conditions": "aqueous solution, Reference Example 201"}}}
{"compound": "c1ccc(COCCCc2ccccn2)cc1", "note": "[invention product 101, 2-(3-benzyloxypropyl)pyridine]", "values": [{"measurement": "Organoleptic Evaluation (umami impartment and saltiness enhancement)", "setting": "panelists [1]; 1 ppb in 0.3 mass % sodium chloride solution, average of 5 panelists, Example 108", "result": "Slightly umami as compared with control."}, {"measurement": "concentration providing umami in 0.3 mass % sodium chloride solution relative to that of the solution in water", "setting": "panelists [1]; Example 108", "result": "about 1/10"}, {"measurement": "concentration providing umami in 0.3 mass % sodium chloride solution relative to that of the solution in water", "setting": "panelists [1]; Example 203", "result": "about 1/10"}, {"measurement": "concentration to realize the same degree of umami intensity relative to that of 2-(2-benzyloxyethyl)pyridine", "setting": "panelists [1]; [9]", "result": "about 1/10"}, {"measurement": "umami imparting effect relative to 2-(2-benzyloxyethyl)pyridine (comparative product 1)", "setting": "panelists [1]; [9]", "result": "about 10 times"}, {"measurement": "umami, saltiness and sweetness compared with non-added soup broth", "setting": "panelists [2]", "result": "stronger umami, saltiness and sweetness"}, {"measurement": "Organoleptic Evaluation Taste", "setting": "panelists [3]; 0.1 ppm dissolved in water, Example 107", "result": "Weakly umami."}, {"measurement": "Organoleptic Evaluation Taste", "setting": "panelists [3]; 0.1 ppm, diluted with ethanol, then with water, Reference Example 201", "result": "Weakly umami."}, {"measurement": "Organoleptic Evaluation Flavor", "setting": "panelists [3]; 2 ppb dissolved in water, Example 107", "result": "Nothing at all."}, {"measurement": "Organoleptic Evaluation Flavor", "setting": "panelists [3]; 2 ppb, diluted with ethanol, then with water, Reference Example 201", "result": "Nothing at all."}, {"measurement": "Organoleptic Evaluation Taste", "setting": "panelists [3]; 10 ppb dissolved in water, Example 107", "result": "Slightly umami"}, {"measurement": "Organoleptic Evaluation Taste", "setting": "panelists [3]; 10 ppb, diluted with ethanol, then with water, Reference Example 201", "result": "Slightly umami."}, {"measurement": "Organoleptic Evaluation Taste", "setting": "panelists [3]; 20 ppm dissolved in water, Example 107", "result": "Strongly umami."}, {"measurement": "Organoleptic Evaluation Taste", "setting": "panelists [3]; 20 ppm, diluted with ethanol, then with water, Reference Example 201", "result": "Strongly umami."}, {"measurement": "concentration to provide the same umami intensity relative to that of 2-(2-benzyloxyethyl)pyridine", "setting": "panelists [3]; [10]", "result": "about 1/10"}, {"measurement": "umami imparting effect relative to 2-(2-benzyloxyethyl)pyridine", "setting": "panelists [3]; [10]", "result": "~10", "unit": "times"}, {"measurement": "concentration to provide the same umami intensity relative to that of 2-(2-benzyloxyethyl)pyridine", "setting": "panelists [3]; in water, Example 107", "result": "about 1/10"}, {"measurement": "umami and saltiness compared with the non-added solution", "setting": "panelists [4]", "result": "stronger umami and saltiness"}, {"measurement": "sweetness compared with the non-added solution", "setting": "panelists [5]", "result": "stronger sweetness"}, {"measurement": "Flavor Evaluation", "setting": "panelists [6]", "result": "somewhat herbal, green and nutty flavor of natural impression"}, {"measurement": "umami compared with aqueous 0.3 mass % edible salt and 0.05 mass % sodium glutamate (MSG)", "setting": "panelists [7]", "result": "umami of almost the same level"}, {"measurement": "umami compared with the non-added solution", "setting": "panelists [8]", "result": "stronger umami"}]}
